# Results: US5736557A, “N,N-bis (quinolin-4-yl)-diamine derivatives, their preparation and their use as antimalarials” (Hoffman-La Roche, Inc., priority 1994, dated 1998)
# Like-named read-outs stand apart in the source and are kept apart here.
# Columns and labels:
# [1] = tested on: chloroquine-sensitive strains of the human-pathogenenic Plasmodium falciparum; experiment: Growth inhibition of chloroquine-sensitive Plasmodium falciparum strains in vitro; format: cell-based
# Description: (§1) Test Method for the Determination of the Activity Against Plasmodium falciparum in vitro
# (§2) The preparations are tested on intraerythrocytary stages of Plasmodium falciparum from asynchronous cultures according to the method of Desjardin et al. (Desjardins, R. E. et al: Quantitative assessment of antimalarial activity in vitro by a semiautomated microdilution technique. Antimicrob. Agents Chemother. 16, 710-718, (1979)).
# (§3) The culture medium consists of RPMI 1640 with the addition of 25 mM HEPES, 25 mM NaHCO3, 100 μg/ml neomycin and […] (A^+). Human-A^+ erythrocytes are used as the Plasmodium falciparum host cells. The parasites are maintained at 37° C. in an atmosphere of 3% O2, 4% CO2, 9:3% N2 and 95% relative humidity.
# (§4) In order to determine the activity, the preparations are dissolved in dimethyl sulphoxide, pre-diluted in the culture medium to a suitable starting concentration and subsequently titrated-out on to microtitre plates in the 2nd stage over 6-7 steps. After the addition of the parasite culture (0.7% parasitemia in 2.5% erythrocyte suspension) the test plates are incubated under the conditions given above for 48 h-72 h. The parasite growth in the different preparation concentrations is determined using [G--^3 H]-hypoxanthin incorporation compared to untreated control cultures on the same test plates. The 50% growth inhibition (IC50) is calculated according to logit regression analysis from the resulting dosage-activity curve.
# (§5) The preparations are tested on at least one chloroquine-resistant and one chloroquine-sensitive Plasmodium falciparum strain. Additional sensitive and resistant strains are included for futher characterization.
# [2] = tested on: chloroquine-resistant strains of the human-pathogenic Plasmodium falciparum; experiment: Growth inhibition of chloroquine-resistant Plasmodium falciparum strains in vitro; format: cell-based; settings: for IC50: Plasmodium falciparum; for Resistance index: ratio of average IC50 values for resistant strains and average values for sensitive strains
# Description: as §1, §2, §3, §4, §5
# Plasmodium berghei = experiment: Activity against Plasmodium berghei in vivo in mice; design: species or system Plasmodium berghei (strain ANKA) in mice; settings: for ED50: read-out: ED50 po
# Description: Test Method for the Determination of the Activity Against Plasmodium berghei in vivo
# The preparations are tested on mice infected with malaria pathogens (Plasmodium berghei). Male albino mice (IBM:MORO(SPF), FUELLINSDORF) weighing about 25 g are used as the test animals. They are kept in climatized rooms at 21°-22° C. in groups of 5 animals per cage. They receive ad libitum a diet feed with a low PABA content (NAFAG FUTTER .COPYRGT. No. 9009 PAB-45, PABA content 45 mg/kg) and drinking water. On the first day of the test (DO) the test animals are infected with Plasmodium berghei (strain ANKA). For this there is used heparinized blood of a donor mouse with about 30% parasitemia, which is diluted with physiological saline such that it contains 10^8 parasitized erythrocytes per ml. 0.2 ml of this suspension is injected intravenously (i.v.) into the mice to be treated and into the control mice. In untreated control animals the parasitemia normally reaches 30-40% on the third day after the infection (D+3) and the test animals die between days +5 and +7.
# The substances to be tested are dissolved or suspended in distilled water or in a mixture of 7% Tween 80, 3% alcohol (96%) and water. Usually, 0.25 ml of this solution or suspension is administered once subcutaneously and perorally to groups of 5 test animals. Treatment is effected 24 hours after the infection. 10 control animals are treated in the same manner with solvent or suspension medium per test.
# All substances are tested in a first test in a single dosage of 10 mg/kg. Only those substances which in this test (10 mg/kg) have shown a parasitaemia reduction of 90% are used for the titration. Suitable dilutions of the test substance can be used to obtain an accurate titration of the activity.
# 48 hours after the treatment (D+3) blood smears are prepared from all animals using blood from tail veins and are stained with giemsa. The average erythrocyte infection rate (parasitemiea in %) in the control groups as well as in the groups which have been treated with the test compounds is determined by counting under a microscope. The difference in the average values of the infection rates of control group (100%) and treated groups is calculated and expressed as a percentage reduction (GI%). The ED50 or ED90 is determined mathematically by means of the JMP programme (nonlinear fit). The ED50 (ED90) in mg/kg is that dose which after single administration reduces the average erythrocyte infection rate by 50% (90%) in comparison to the control group.
# [3] = HB3, strain HB3, chloroquine-sensitive, read-out: IC50 growth inhibition
# [4] = NF54, strain NF54, chloroquine-sensitive, read-out: IC50 growth inhibition
# [5] = strain FCH5C2, chloroquine-sensitive, read-out: IC50 growth inhibition
# [6] = strain RFMEF3, chloroquine-sensitive, read-out: IC50 growth inhibition
# [7] = strain Ro73, chloroquine-sensitive, read-out: IC50 growth inhibition
# [8] = read-out: IC50 growth inhibition, strain 7G8, chloroquine-resistant
# [9] = read-out: IC50 growth inhibition, strain Indo, chloroquine-resistant
# [10] = read-out: IC50 growth inhibition, strain ItG2F6, chloroquine-resistant
# [11] = read-out: IC50 growth inhibition, strain K1, chloroquine-resistant
# [12] = read-out: IC50 growth inhibition, strain RFCF3, chloroquine-resistant
# [13] = read-out: IC50 growth inhibition, strain W2, chloroquine-resistant
# [14] = read-out: IC50 growth inhibition, strain W2 Mef, chloroquine-resistant
# [15] = po, percentage parasitemia reduction, single peroral dose 10 mg/kg, mice, read-out: GI % at 10 mg/kg po
# [16] = sc, percentage parasitemia reduction, single subcutaneous dose 10 mg/kg, mice, read-out: GI % at 10 mg/kg sc
# [17] = NF54, read-out: IC50 growth inhibition, strain NF54, chloroquine-sensitive
# [18] = read-out: IC50 growth inhibition, strain Ro73, chloroquine-sensitive
# [19] = po, single peroral administration, mice
Structure (SMILES),"IC50 [1, 3] [ng/mL]","IC50 [1, 4] [ng/mL]","IC50 [1, 5] [ng/mL]","IC50 [1, 6] [ng/mL]","IC50 [1, 7] [ng/mL]","IC50 [2, 8] [ng/mL]","IC50 [2, 9] [ng/mL]","IC50 [2, 10] [ng/mL]","IC50 [2, 11] [ng/mL]","IC50 [2, 12] [ng/mL]","IC50 [2, 13] [ng/mL]","IC50 [2, 14] [ng/mL]",Resistance index [2],inhibition in vivo at 10 mg/kg (Plasmodium berghei; [15]) [%],inhibition in vivo at 10 mg/kg (Plasmodium berghei; [16]) [%],also measured
"C[C@H]1[C@@H](Nc2ccnc3cc(Cl)ccc23)CCC[C@H]1Nc1ccnc2cc(Cl)ccc12 [Example 8, cis,cis-N,N'-Bis-(7-chloroquinolin-4-yl)-2-methyl-cyclohexane-1,3-diamine]",6.1,7.7,6.1,6.3,1.6,9.4,6.4,6.4,8.8,4.6,5.6,9.1,1.3,66,67,
"Clc1ccc2c(N[C@H]3CCC[C@H](Nc4ccnc5cc(Cl)ccc45)C3)ccnc2c1 (relative stereo) [Example 7, ±-trans-N,N'-Bis-(7-chloroquinolin-4-yl)-cyclohexane-1,3-diamine]",,10.7,,,,,,,10.5,,,,,97,99,
"CCN(CC)CCCC(C)Nc1ccnc2cc(Cl)ccc12 (stereo not drawn) [Chloroquine, reference compound]",,,,,,81,52,68,114,130,,79,8.7,,,"IC50 ([1]; HB3, read-out: IC50 growth inhibition, strain HB3, chloroquine-sensitive): 11.3 ng/mL; IC50 [1, 17]: 7.6 ng/mL; IC50 ([1]; read-out: IC50 growth inhibition, strain FCH5C2, chloroquine-sensitive): 12.2 ng/mL; IC50 ([1]; read-out: IC50 growth inhibition, strain RFMEF3, chloroquine-sensitive): 14.2 ng/mL; IC50 [1, 18]: 8 ng/mL; ED50 (Plasmodium berghei; po): 2 mg/kg; inhibition in vivo at 10 mg/kg (Plasmodium berghei; po, read-out: GI % at 10 mg/kg po): 99.9%; inhibition in vivo at 10 mg/kg (Plasmodium berghei; sc, read-out: GI % at 10 mg/kg sc): 99.9%"
"Clc1ccc2c(N[C@H]3CC[C@H](Nc4ccnc5cc(Cl)ccc45)CC3)ccnc2c1 [Example 4, ±-trans-N,N'-Bis-(7-chloroquinolin-4-yl)-cyclohexane-1,4-diamine]",3.3,7.2,3.6,3.3,1.6,2.8,6,5.3,11.6,9.5,13.1,7,2.1,73,37,
"Clc1ccc2c(NCc3ccccc3CNc3ccnc4cc(Cl)ccc34)ccnc2c1 [Example 1, (7-Chloroquinolin-4-yl)-[2-(7-chloroquinolin-4-yl-aminomethyl)-benzyl]-amin]",7.5,10.2,6.6,6.5,3.6,7,6.9,4.7,6.9,5.4,5.8,4.9,0.9,62,97,
"Clc1ccc2c(N[C@@H]3CCC[C@H](Nc4ccnc5cc(Cl)ccc45)C3)ccnc2c1 [Example 6, cis-N,N'-Bis-(7-chloroquinolin-4-yl)-cyclohexane-1,3-diamine]",5.2,,6.4,4.8,,3.8,3,4.1,4.4,4.2,4,7.6,1.0,98,99.9,"IC50 [1, 17]: 3.8 ng/mL; IC50 [1, 18]: 3 ng/mL; ED50 (Plasmodium berghei; [19]): 1.7 mg/kg"
"Clc1ccc2c(NCc3cccc(CNc4ccnc5cc(Cl)ccc45)c3)ccnc2c1 [Example 2, (7-Chloroquinolin-4-yl)-[3-(7-chloroquinolin-4-yl-aminomethyl)-benzyl]-amine]",8.9,10.3,12.5,7.8,13.3,13.9,15.8,19,17,26.3,100,17,2.8,87,99,
"Clc1ccc2c(NCc3ccc(CNc4ccnc5cc(Cl)ccc45)cc3)ccnc2c1 [Example 3, (7-Chloroquinolin-4-yl)-[4-(7-chloroquinolin-4-yl-aminomethyl)-benzyl]-amine]",4.6,9.6,12.7,12.5,7.4,6.8,2.9,7.9,9.1,5.7,5,9.7,0.7,99.9,99.9,ED50 (Plasmodium berghei; [19]): 2.5 mg/kg
